Assay results: patent US4264577A, “Contraceptive methods and compositions” (Eli Lilly and Company, priority 1980, dated 1981)

What was measured:
[1] = tested on: cumulus oophorus of rabbit ova; test: Removal of cumulus oophorus from ova by hyaluronidase, in vitro; format: cell-based; details: 10 μl. of 10 mg./ml. solution in 1 ml medium, 37° C.; sulfate
Experimental: In the absence of sodium n-tetradecyl sulfate, complete removal of the cumulus oophorus and zona pellucida is observed.
Female rabbits are given 100 units of pregnant mares serum (PMS), IM, and 134 units of HCG, IV. After 13 hours the animals are sacrificed, and the ovaries are excised. The ovaries are submerged in calcium-free Ringer's solution containing 20% rabbit serum which had been heated to 55° C. for 20 minutes. Ova with cumulus intact are removed and placed in calcium-free Ringer's solution for incubation at 37° C. Hyaluronidase (10 μl.) of a 10 mg./ml. solution in calcium-free Ringer's solution is added to 20 ova in 1 ml. of the incubation medium. To 10 ova in the same medium is added 10 μl. of a solution of sodium n-tetradecyl sulfate (10 mg./ml.) in calcium-free Ringer's solution. To 10 other ova in the same media is added 10 μl. of calcium-free Ringer's solution as control. The mixtures are incubated at 37° C., and the cumulus oophorus is examined at 15 minute intervals with an American Optical stereomicroscope. In the absence of sodium tetradecyl sulfate, the cumulus oophorus is completely removed.

rats = details: orally (rats); cited from earlier work
[2] = Release from coated medicated dimethylpolysiloxane rods into water; format: physicochemical
Experimental: Dimethylpolysiloxane rubber rods (3 mm. diameter) containing 25% (W/W) sodium n-tetradecyl sulfate are prepared by the procedure described in Example 3, Method B. The rods are cut into one-inch pieces. A coating solution is prepared by dissolving 12.5 grams of dimethylpolysiloxane elastomer (DOW-Corning MDX-4-4210) in 37.5 ml of methylene chloride and then dissolving 1.88 grams of curing agent (Dow-Corning MDX-4-4210) therein. A straight pin is placed in the end of each one inch piece of rod. The piece of rod, held by the pin, is dipped into the above solution, and the rod is withdrawn from the solution and drained. The piece of rod is rotated as methylene chloride evaporates. The coated rods are placed in an oven at 120° C. for 10 minutes to cure the coating. The coated rods are then placed in a vacuum oven at 40° C. overnight to remove all methylene chloride. A second and third coat can be applied by the above method.
The release of sodium n-tetradecyl sulfate from the coated medicated rods, prepared as above-described, into water is shown in Table 10, below:
^(a) Weight of rods: 500 mg.; amount of water added: 10 ml.;
temperature: 37° C.; active compound determined by methylene blue

[3] = Drug release rate in vivo, intrauterine medicated rubber rods; parameters: species or system rabbit; details: uterine horn
Experimental: (a) Dimethylpolysiloxane rubber rods (3 mm. diameter shaved to 2 mm.) weighing 40 mg. each and containing 5, 10, or 20% (W/W) of sodium n-tetradecyl sulfate (prepared by Example 3, Method B, lots 218-1, 225-1, and 218-2, respectively) are inserted into the right uterine horn of virgin Dutch -belted female rabbits, as follows:
After 60 days the animals in Group 1 are sacrificed and the rubber rods are removed, washed, and extracted continuously with methanol for 24 hours to remove the remaining sodium n-tetradecyl sulfate. The methanol extract is evaporated. The residue is dissolved in 10% methanol-water and assayed for sodium n-tetradecyl sulfate by the methylene blue method. The amount of active compound remaining in the rod is subtracted from the amount originally present in the rod, and the difference is assumed to be the amount released during the time period. After 120 days or […] the animals in Group 2 and Group 3, respectively, are sacrificed, and the rods were removed and treated as above described. The release of sodium n-tetradecyl sodium sulfate into the uterine fluids, as determined by the afore-described test procedure, after 60, 120, and 180 days is shown in Table 8, below: […]

For `CCCCCCCCCCCCCCOS(=O)(=O)[O-].[Na+]` [n-tetradecyl, sodium n-tetradecyl sulfate], the “state of cumulus oophorus in presence of hyaluronidase” value [1] is given as “remains substantially intact”, the LD50 (rats) is given as “greater than 3.5 g/kg” and the “Amount of sodium n-tetradecyl sulfate released (mg. per 7 days)” value (from here on “Amount … (mg. per 7 days)”) ([2]; 1 coat, Days 7, 500 mg rod, 25% W/W, 10 ml water 37° C.) is given as 0 mg. per 7 days. The “Amount … (mg. per 7 days)” value ([2]; 1 coat, Days 14) was 0.14 mg. per 7 days, the “Amount … (mg. per 7 days)” value ([2]; 1 coat, Days 21) was 77.4 mg. per 7 days and the “Amount … (mg. per 7 days)” value ([2]; 1 coat, Days 28) was 414.0 mg. per 7 days. The “Amount … (mg. per 7 days)” value ([2]; 1 coat, Days 35) was 128.0 mg. per 7 days, the “Amount … (mg. per 7 days)” value ([2]; 1 coat, Days 42) was 586.0 mg. per 7 days and the “Amount … (mg. per 7 days)” value ([2]; 1 coat, Days 49) was 370.0 mg. per 7 days. For the same compound, the “Amount … (mg. per 7 days)” value ([2]; 1 coat, Days 56) was 524.0 mg. per 7 days, the “Amount … (mg. per 7 days)” value ([2]; 1 coat, Days 63) was 571.0 mg. per 7 days and the “Amount … (mg. per 7 days)” value ([2]; 1 coat, Days 70) was 524.0 mg. per 7 days. The “Amount … (mg. per 7 days)” value ([2]; 1 coat, Days 77) was 471.0 mg. per 7 days, the “Amount … (mg. per 7 days)” value ([2]; 1 coat, Days 84) was 386.0 mg. per 7 days and the “Amount … (mg. per 7 days)” value ([2]; 1 coat, Days 91) was 330.0 mg. per 7 days. The “Amount … (mg. per 7 days)” value ([2]; 1 coat, Days 98) was 349.0 mg. per 7 days, the “Amount … (mg. per 7 days)” value ([2]; 1 coat, Days 105) was 240.0 mg. per 7 days and the “Amount … (mg. per 7 days)” value ([2]; 1 coat, Days 112) was 329.0 mg. per 7 days. The “Amount … (mg. per 7 days)” value ([2]; 1 coat, Days 119) was 286.0 mg. per 7 days, the “Amount … (mg. per 7 days)” value ([2]; 1 coat, Days 126) was 430.0 mg. per 7 days and the “Amount … (mg. per 7 days)” value ([2]; 2 coat, Days 7) was 0 mg. per 7 days. The “Amount … (mg. per 7 days)” value ([2]; 2 coat, Days 14) was 0 mg. per 7 days, the “Amount … (mg. per 7 days)” value ([2]; 2 coat, Days 21) was “.03 mg. per 7 days” and the “Amount … (mg. per 7 days)” value ([2]; 2 coat, Days 28) was 628.0 mg. per 7 days. For the same compound, the “Amount … (mg. per 7 days)” value ([2]; 2 coat, Days 35) was 124.0 mg. per 7 days, the “Amount … (mg. per 7 days)” value ([2]; 2 coat, Days 42) was 96.0 mg. per 7 days and the “Amount … (mg. per 7 days)” value ([2]; 2 coat, Days 49) was 186.0 mg. per 7 days. For the same compound, the “Amount … (mg. per 7 days)” value ([2]; 2 coat, Days 56) was 135.0 mg. per 7 days, the “Amount … (mg. per 7 days)” value ([2]; 2 coat, Days 63) was 183.0 mg. per 7 days and the “Amount … (mg. per 7 days)” value ([2]; 2 coat, Days 70) was 174.0 mg. per 7 days. The “Amount … (mg. per 7 days)” value ([2]; 2 coat, Days 77) was 229.0 mg. per 7 days, the “Amount … (mg. per 7 days)” value ([2]; 2 coat, Days 84) was 170.0 mg. per 7 days and the “Amount … (mg. per 7 days)” value ([2]; 2 coat, Days 91) was 200.0 mg. per 7 days. The “Amount … (mg. per 7 days)” value ([2]; 2 coat, Days 98) was 190.0 mg. per 7 days, the “Amount … (mg. per 7 days)” value ([2]; 2 coat, Days 105) was 224.0 mg. per 7 days and the “Amount … (mg. per 7 days)” value ([2]; 2 coat, Days 112) was 121.0 mg. per 7 days. The “Amount … (mg. per 7 days)” value ([2]; 2 coat, Days 119) was 100.0 mg. per 7 days, the “Amount … (mg. per 7 days)” value ([2]; 2 coat, Days 126) was 92.0 mg. per 7 days and the “Amount … (mg. per 7 days)” value ([2]; 3 coat, Days 7) was 0 mg. per 7 days. The “Amount … (mg. per 7 days)” value ([2]; 3 coat, Days 14) was “.02 mg. per 7 days”, the “Amount … (mg. per 7 days)” value ([2]; 3 coat, Days 21) was 0 mg. per 7 days and the “Amount … (mg. per 7 days)” value ([2]; 3 coat, Days 28) was 10.0 mg. per 7 days. The “Amount … (mg. per 7 days)” value ([2]; 3 coat, Days 35) was 142.0 mg. per 7 days, the “Amount … (mg. per 7 days)” value ([2]; 3 coat, Days 42) was 0 mg. per 7 days and the “Amount … (mg. per 7 days)” value ([2]; 3 coat, Days 49) was 186.0 mg. per 7 days. For the same compound, the “Amount … (mg. per 7 days)” value ([2]; 3 coat, Days 56) was 143.0 mg. per 7 days, the “Amount … (mg. per 7 days)” value ([2]; 3 coat, Days 63) was 194.0 mg. per 7 days and the “Amount … (mg. per 7 days)” value ([2]; 3 coat, Days 70) was 174.0 mg. per 7 days. The “Amount … (mg. per 7 days)” value ([2]; 3 coat, Days 77) was 157.0 mg. per 7 days, the “Amount … (mg. per 7 days)” value ([2]; 3 coat, Days 84) was 160.0 mg. per 7 days and the “Amount … (mg. per 7 days)” value ([2]; 3 coat, Days 91) was 140.0 mg. per 7 days. For the same compound, the “Amount … (mg. per 7 days)” value ([2]; 3 coat, Days 98) was 159.0 mg. per 7 days, the “Amount … (mg. per 7 days)” value ([2]; 3 coat, Days 105) was 196.0 mg. per 7 days and the “Amount … (mg. per 7 days)” value ([2]; 3 coat, Days 112) was 157.0 mg. per 7 days. The “Amount … (mg. per 7 days)” value ([2]; 3 coat, Days 119) was 150.0 mg. per 7 days, the “Amount … (mg. per 7 days)” value ([2]; 3 coat, Days 126) was 156.0 mg. per 7 days and the “Amount of sodium n-tetradecyl sulfate released (μg. per day)” value (“Amount … (μg. per day)” for short) ([3]; 5% compound in rod, 60 days) was 2.25 μg. per day. The “Amount … (μg. per day)” value ([3]; 5% compound in rod, 120 days) was 1.80 μg. per day, the “Amount … (μg. per day)” value ([3]; 5% compound in rod, 180 days) was 3.60 μg. per day and the “Amount … (μg. per day)” value ([3]; 10% compound in rod, 60 days) was 22.1 μg. per day. For the same compound, the “Amount … (μg. per day)” value ([3]; 10% compound in rod, 120 days) was 13.7 μg. per day, the “Amount … (μg. per day)” value ([3]; 20% compound in rod, 60 days) was 62.4 μg. per day and the “Amount … (μg. per day)” value ([3]; 20% compound in rod, 120 days) was 33.5 μg. per day.
